Key:
Assay in all cases: relative viability (nuclei count vs DMSO), 5 days (fraction); higher = more cells survive
NCI-H1666 = system: NCI-H1666
Outline: (§1)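 The day after seeding in 1536-well plates, lung cancer cell lines were treated by pin tool with a single drug, or with a fixed anchor-drug dose together with five library-drug doses (not always all listed) in √10 steps. After 5 days, a combined fix-and-stain solution (final 0.05% Triton X-100, 1% formaldehyde, 1 ug/ml Hoechst) was added. Nuclei counted on 4× images gave relative viability as treated counts over vehicle counts, reported as the median of duplicate plates.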

NCI-H358 = system: NCI-H358
Outline: as §1

NCI-H661 = system: NCI-H661
Outline: as §1

SK-MES-1 = system: SK-MES-1
Outline: as §1

PC-3 [JPC-3] = system: PC-3 [JPC-3]
Outline: as §1

NCI-H596 = system: NCI-H596
Outline: as §1

HCC-15 = system: HCC-15
Outline: as §1

NCI-H1651 = system: NCI-H1651
Outline: as §1

UMC-11 = system: UMC-11
Outline: as §1

LXF-289 = system: LXF-289
Outline: as §1

BEN = system: BEN
Outline: as §1

NCI-H2087 = system: NCI-H2087
Outline: as §1

HCC-78 = system: HCC-78
Outline: as §1

NCI-H322M = system: NCI-H322M
Outline: as §1

NCI-H650 = system: NCI-H650
Outline: as §1

NCI-H1944 = system: NCI-H1944
Outline: as §1

LCLC-97TM1 = system: LCLC-97TM1
Outline: as §1

LU99A = system: LU99A
Outline: as §1

NCI-H838 = system: NCI-H838
Outline: as §1

LC-2-ad = system: LC-2-ad
Outline: as §1

LK-2 = system: LK-2
Outline: as §1

CC1(C)CCC(c2ccc(Cl)cc2)=C(CN2CCN(c3ccc(C(=O)NS(=O)(=O)c4ccc(N[C@H](CCN5CCOCC5)CSc5ccccc5)c(S(=O)(=O)C(F)(F)F)c4)cc3)CC2)C1 [Navitoclax] + C[C@]1(O)C[C@@H](c2nc(-c3ccc4ccc(-c5ccccc5)nc4c3)c3c(N)nccn32)C1 [Linsitinib] (partner 1 µM)
relative viability (NCI-H1666; first compound 0.005 µM): 0.923
relative viability (NCI-H1666; first compound 0.01581 µM): 0.954
relative viability (NCI-H1666; first compound 0.05 µM): 0.82
relative viability (NCI-H1666; first compound 0.1581 µM): 0.705
relative viability (NCI-H1666; first compound 0.5 µM): 0.829
relative viability (NCI-H358; first compound 0.005 µM): 0.763
relative viability (NCI-H358; first compound 0.01581 µM): 0.956
relative viability (NCI-H358; first compound 0.05 µM): 0.813
relative viability (NCI-H358; first compound 0.1581 µM): 0.898
relative viability (NCI-H358; first compound 0.5 µM): 0.822
relative viability (NCI-H661; first compound 0.005 µM): 0.524
relative viability (NCI-H661; first compound 0.01581 µM): 0.601
relative viability (NCI-H661; first compound 0.05 µM): 0.575
relative viability (NCI-H661; first compound 0.1581 µM): 0.552
relative viability (NCI-H661; first compound 0.5 µM): 0.5
relative viability (SK-MES-1; first compound 0.005 µM): 1.03
relative viability (SK-MES-1; first compound 0.01581 µM): 1.19
relative viability (SK-MES-1; first compound 0.05 µM): 1.19
relative viability (SK-MES-1; first compound 0.1581 µM): 1.02
relative viability (SK-MES-1; first compound 0.5 µM): 1.1
relative viability (PC-3 [JPC-3]; first compound 0.005 µM): 0.964
relative viability (PC-3 [JPC-3]; first compound 0.01581 µM): 0.996
relative viability (PC-3 [JPC-3]; first compound 0.05 µM): 0.996
relative viability (PC-3 [JPC-3]; first compound 0.1581 µM): 0.983
relative viability (PC-3 [JPC-3]; first compound 0.5 µM): 0.969
relative viability (NCI-H596; first compound 0.005 µM): 1.09
relative viability (NCI-H596; first compound 0.01581 µM): 1.09
relative viability (NCI-H596; first compound 0.05 µM): 0.722
relative viability (NCI-H596; first compound 0.1581 µM): 1
relative viability (NCI-H596; first compound 0.5 µM): 1.02
relative viability (HCC-15; first compound 0.005 µM): 0.819
relative viability (HCC-15; first compound 0.01581 µM): 0.97
relative viability (HCC-15; first compound 0.05 µM): 0.783
relative viability (HCC-15; first compound 0.1581 µM): 0.842
relative viability (HCC-15; first compound 0.5 µM): 0.843
relative viability (NCI-H1651; first compound 0.005 µM): 0.945
relative viability (NCI-H1651; first compound 0.01581 µM): 1.25
relative viability (NCI-H1651; first compound 0.1581 µM): 0.966
relative viability (NCI-H1651; first compound 0.5 µM): 0.937
relative viability (UMC-11; first compound 0.005 µM): 0.97
relative viability (UMC-11; first compound 0.01581 µM): 1.03
relative viability (UMC-11; first compound 0.1581 µM): 1.01
relative viability (UMC-11; first compound 0.5 µM): 0.893
relative viability (LXF-289; first compound 0.005 µM): 0.971
relative viability (LXF-289; first compound 0.01581 µM): 0.974
relative viability (LXF-289; first compound 0.05 µM): 0.84
relative viability (LXF-289; first compound 0.1581 µM): 0.978
relative viability (LXF-289; first compound 0.5 µM): 0.966
relative viability (BEN; first compound 0.005 µM): 0.841
relative viability (BEN; first compound 0.01581 µM): 0.921
relative viability (BEN; first compound 0.05 µM): 0.958
relative viability (BEN; first compound 0.1581 µM): 0.911
relative viability (BEN; first compound 0.5 µM): 0.634
relative viability (NCI-H2087; first compound 0.005 µM): 0.919
relative viability (NCI-H2087; first compound 0.01581 µM): 0.898
relative viability (NCI-H2087; first compound 0.05 µM): 0.956
relative viability (NCI-H2087; first compound 0.1581 µM): 1.14
relative viability (NCI-H2087; first compound 0.5 µM): 0.871
relative viability (HCC-78; first compound 0.005 µM): 0.468
relative viability (HCC-78; first compound 0.01581 µM): 0.604
relative viability (HCC-78; first compound 0.1581 µM): 0.523
relative viability (HCC-78; first compound 0.5 µM): 0.576
relative viability (NCI-H322M; first compound 0.005 µM): 0.79
relative viability (NCI-H322M; first compound 0.01581 µM): 0.992
relative viability (NCI-H322M; first compound 0.05 µM): 0.96
relative viability (NCI-H322M; first compound 0.1581 µM): 0.953
relative viability (NCI-H322M; first compound 0.5 µM): 0.921
relative viability (NCI-H650; first compound 0.005 µM): 0.703
relative viability (NCI-H650; first compound 0.01581 µM): 0.817
relative viability (NCI-H650; first compound 0.05 µM): 0.97
relative viability (NCI-H650; first compound 0.1581 µM): 0.767
relative viability (NCI-H650; first compound 0.5 µM): 0.846
relative viability (NCI-H1944; first compound 0.005 µM): 1.19
relative viability (NCI-H1944; first compound 0.01581 µM): 1.33
relative viability (NCI-H1944; first compound 0.05 µM): 1.01
relative viability (NCI-H1944; first compound 0.1581 µM): 1.19
relative viability (NCI-H1944; first compound 0.5 µM): 1.17
relative viability (LCLC-97TM1; first compound 0.005 µM): 0.189
relative viability (LCLC-97TM1; first compound 0.01581 µM): 0.186
relative viability (LCLC-97TM1; first compound 0.05 µM): 0.193
relative viability (LCLC-97TM1; first compound 0.1581 µM): 0.18
relative viability (LCLC-97TM1; first compound 0.5 µM): 0.172
relative viability (LU99A; first compound 0.005 µM): 0.622
relative viability (LU99A; first compound 0.01581 µM): 0.67
relative viability (LU99A; first compound 0.05 µM): 0.444
relative viability (LU99A; first compound 0.1581 µM): 0.543
relative viability (LU99A; first compound 0.5 µM): 0.522
relative viability (NCI-H838; first compound 0.005 µM): 0.89
relative viability (NCI-H838; first compound 0.01581 µM): 1.11
relative viability (NCI-H838; first compound 0.05 µM): 1.12
relative viability (NCI-H838; first compound 0.1581 µM): 1.03
relative viability (NCI-H838; first compound 0.5 µM): 1.03
relative viability (LC-2-ad; first compound 0.005 µM): 0.853
relative viability (LC-2-ad; first compound 0.01581 µM): 0.904
relative viability (LC-2-ad; first compound 0.05 µM): 0.787
relative viability (LC-2-ad; first compound 0.1581 µM): 0.789
relative viability (LC-2-ad; first compound 0.5 µM): 0.796
relative viability (LK-2; first compound 0.005 µM): 0.792
relative viability (LK-2; first compound 0.01581 µM): 0.803
relative viability (LK-2; first compound 0.05 µM): 0.805
relative viability (LK-2; first compound 0.1581 µM): 0.51
relative viability (LK-2; first compound 0.5 µM): 0.623

Reference: the supplement of paper PMC10307832
